The values that follow come from article PMC11648822, “Lactam Truncation Yields a Dihydroquinazolinone Scaffold with Potent Antimalarial Activity that Targets PfATP4” (Chemmedchem, 2024).

The test system of this assay is P. berghei ANKA. In words: P. berghei 4-day mouse model. Format: in vivo. The settings on record: 20 mg/kg p.o. q.d. at 2, 24, 48, 72 h. As to the method:
In this model, mice are infected with P. berghei ANKA asexual blood stage parasites. Compounds are then administered by oral gavage at 20 mg/kg 2, 24, 48, and 72 hours after the parasite infection.
Each day, a fresh aliquot of the compound stock was diluted 1/10 in water for administration to mice. 8 week old female mice (Ozgene) on day 0 were infected with 2×10^7 P. berghei ANKA‐infected erythrocytes. […] 2 mice were also dosed with artesunate using the same regime at 30 mg/kg. The parasitemia of mice was assessed by visualizing Giemsa‐stained thin blood smears by microscopy and a minimum of 1000 RBCs were counted. To calculate the percent antimalarial activity the following formula was used: 100 ‐ (mean parasitemia treated day 4 post‐infection/mean parasitemia vehicle control day 4 post‐infection)×100. Mice were culled the day following the last oral gavage.
Briefly, ‘donor’ female Swiss mice were infected intraperitoneally (IP) with blood stage P. berghei parasites constitutively expressing GFP (P. berghei ANKA GFPcon 259cl2).[36] Three days later, groups of 3 ‘acceptor’ Swiss mice were infected intravenously with 1 x 10^7 parasitised red blood cells from the ‘donor mice’. […] Control mice were left untreated. Peripheral blood samples were taken 24 h after administration of the last dose, and parasitemia was measured by flow cytometry (proportion of GFP‐positive cells in 100,000 recorded events using Attune Nxt, ThermoFisher) and microscopic analysis of Giemsa‐stained blood smears. Parasitemia values were averages of 3 mice per group.

“And” between values parts separate entries of the source, which are not always exact repeats. Identical values can stand only once.

On to `CN1C(=O)c2ccc(-n3cccn3)cc2NC1(C)C(=O)Nc1cncc(Cl)c1` (centres unmarked) [Compound 33, N‐(5‐Chloropyridin‐3‐yl)‐2,3‐dimethyl‐4‐oxo‐7‐(1H‐pyrazol‐1‐yl)‐1,2,3,4‐tetrahydroquinazoline‐2‐carboxamide], for which, under “day 4”, the “% parasitemia” value is reported as 12.8%. Moreover, the “% reduction in parasitemia” value (day 4, versus control) was 46% and 46.7%.
